In ChEMBL document CHEMBL3045074, “Synthesis and anticonvulsant activity of novel quinazolin-4(3H)-one derived pyrazole analogs” (Med Chem Res, 2013):
Activity calls are given as the source filed them. No cut-off for these calls is given here.

Legend:
Mus musculus [1] = test: Anticonvulsant activity in Swiss albino Mus musculus (mouse) assessed as protection against subcutaneous pentylenetetrazole-induced seizure at 300 mg/kg, ip after 4 hr; format: functional, organism-based; design: dose 300 mg/kg
Mus musculus [2] = test: Anticonvulsant activity in Swiss albino Mus musculus (mouse) assessed as protection against subcutaneous pentylenetetrazole-induced seizure at 300 mg/kg, ip after 0.5 hr; format: functional, organism-based; design: dose 300 mg/kg
Mus musculus [3] = test: Anticonvulsant activity in Swiss albino Mus musculus (mouse) assessed as protection against maximal electroshock-induced seizures at 300 mg/kg, ip after 4 hr; format: functional, organism-based; design: dose 300 mg/kg
Mus musculus [4] = test: Anticonvulsant activity in Swiss albino Mus musculus (mouse) assessed as protection against maximal electroshock-induced seizures at 300 mg/kg, ip after 0.5 hr; format: functional, organism-based; design: dose 300 mg/kg
Mus musculus [5] = test: Anticonvulsant activity in Swiss albino Mus musculus (mouse) assessed as protection against maximal electroshock-induced seizures at 30 mg/kg, ip after 0.5 hr; format: functional, organism-based; design: dose 30 mg/kg
Rattus norvegicus [6] = test: Anticonvulsant activity in Wistar Rattus norvegicus (rat) assessed as protection against maximal electroshock-induced seizures at 30 mg/kg, po after 4 hr; format: functional
Rattus norvegicus [7] = test: Neurotoxicity in Wistar Rattus norvegicus (rat) assessed as minimal motor impairment at 30 mg/kg, po after 0.25 to 4 hr by rotorod test; format: toxicity, organism-based; design: dose 30 mg/kg, route oral; conditions: in vivo
Rattus norvegicus [8] = test: Anticonvulsant activity in Wistar Rattus norvegicus (rat) assessed as protection against maximal electroshock-induced seizures at 30 mg/kg, po after 2 hr; format: functional
Rattus norvegicus [9] = test: Anticonvulsant activity in Wistar Rattus norvegicus (rat) assessed as protection against maximal electroshock-induced seizures at 30 mg/kg, po after 1 hr; format: functional
Rattus norvegicus [10] = test: Anticonvulsant activity in Wistar Rattus norvegicus (rat) assessed as protection against maximal electroshock-induced seizures at 30 mg/kg, po after 0.5 hr; format: functional
Rattus norvegicus [11] = test: Anticonvulsant activity in Wistar Rattus norvegicus (rat) assessed as protection against maximal electroshock-induced seizures at 30 mg/kg, po after 0.25 hr; format: functional
Mus musculus [12] = test: Neurotoxicity in Swiss albino Mus musculus (mouse) assessed as minimal motor impairment at 300 mg/kg, ip after 4 hr by rotorod test; format: toxicity, organism-based; design: dose 300 mg/kg, route intraperitoneal; conditions: in vivo
Mus musculus [13] = test: Neurotoxicity in Swiss albino Mus musculus (mouse) assessed as minimal motor impairment at 300 mg/kg, ip after 0.5 hr by rotorod test; format: toxicity, organism-based; design: dose 300 mg/kg, route intraperitoneal; conditions: in vivo
Mus musculus [14] = test: Anticonvulsant activity in Swiss albino Mus musculus (mouse) assessed as protection against subcutaneous pentylenetetrazole-induced seizure at 100 mg/kg, ip after 0.5 hr; format: functional, organism-based; design: dose 100 mg/kg
Mus musculus [15] = test: Anticonvulsant activity in Swiss albino Mus musculus (mouse) assessed as protection against maximal electroshock-induced seizures at 100 mg/kg, ip after 4 hr; format: functional, organism-based; design: dose 100 mg/kg
Mus musculus [16] = test: Anticonvulsant activity in Swiss albino Mus musculus (mouse) assessed as protection against maximal electroshock-induced seizures at 100 mg/kg, ip after 0.5 hr; format: functional, organism-based; design: dose 100 mg/kg
Mus musculus [17] = test: Neurotoxicity in Swiss albino Mus musculus (mouse) assessed as minimal motor impairment at 100 mg/kg, ip after 4 hr by rotorod test; format: toxicity, organism-based; design: dose 100 mg/kg, route intraperitoneal; conditions: in vivo
Mus musculus [18] = test: Neurotoxicity in Swiss albino Mus musculus (mouse) assessed as minimal motor impairment at 100 mg/kg, ip after 0.5 hr by rotorod test; format: toxicity, organism-based; design: dose 100 mg/kg, route intraperitoneal; conditions: in vivo
Mus musculus [19] = test: Anticonvulsant activity in Swiss albino Mus musculus (mouse) assessed as protection against maximal electroshock-induced seizures at 30 mg/kg, ip after 4 hr; format: functional, organism-based; design: dose 30 mg/kg

CN(C)c1ccc(C2CC(c3ccccc3)=NN2C(=O)c2ccc(-n3c(-c4ccccc4)nc4ccccc4c3=O)cc2)cc1 (stereo unspecified)
Activity (Mus musculus [1]): inactive | Activity (Mus musculus [2]): inactive | Activity (Mus musculus [3]): Active | Activity (Mus musculus [4]): inactive

Cc1nc2ccccc2c(=O)n1-c1ccc(C(=O)N2N=C(c3ccccc3)CC2c2ccc(Cl)cc2)cc1 (stereo unspecified)
Activity (Mus musculus [5]): Active | Activity (Rattus norvegicus [6]): 75% | Activity (Rattus norvegicus [7]): Non-toxic | Activity (Rattus norvegicus [8]): 75% | Activity (Rattus norvegicus [9]): 50% | Activity (Rattus norvegicus [10]): 50% | Activity (Rattus norvegicus [11]): 25% | Activity (Mus musculus [12]): Non-toxic | Activity (Mus musculus [13]): Toxic | Activity (Mus musculus [1]): Active | Activity (Mus musculus [14]): Active | Activity (Mus musculus [15]): Active

Cc1nc2ccccc2c(=O)n1-c1ccc(C(=O)N2N=C(c3ccccc3)CC2c2ccc(N(C)C)cc2)cc1 (stereo unspecified)
Activity (Mus musculus [16]): Active | Activity (Rattus norvegicus [6]): 50% | Activity (Rattus norvegicus [7]): Non-toxic | Activity (Rattus norvegicus [8]): 25% | Activity (Rattus norvegicus [9]): 0% | Activity (Rattus norvegicus [10]): 0% | Activity (Rattus norvegicus [11]): 0% | Activity (Mus musculus [12]): Non-toxic | Activity (Mus musculus [13]): Non-toxic | Activity (Mus musculus [1]): Active | Activity (Mus musculus [14]): Active | Activity (Mus musculus [3]): Active

O=C(c1ccc(-n2c(-c3ccccc3)nc3ccccc3c2=O)cc1)N1N=C(c2ccccc2)CC1c1cccc([N+](=O)[O-])c1 (stereo unspecified)
Activity (Mus musculus [1]): inactive | Activity (Mus musculus [2]): Active | Activity (Mus musculus [3]): inactive | Activity (Mus musculus [4]): inactive

O=C1NC(=O)C(c2ccccc2)(c2ccccc2)N1 [PHENYTOIN]
Activity (Mus musculus [5]): Active | Activity (Rattus norvegicus [6]): 75% | Activity (Rattus norvegicus [7]): Non-toxic | Activity (Rattus norvegicus [8]): 75% | Activity (Rattus norvegicus [9]): 75% | Activity (Rattus norvegicus [10]): 100% | Activity (Rattus norvegicus [11]): 25% | Activity (Mus musculus [17]): Toxic | Activity (Mus musculus [18]): Toxic | Activity (Mus musculus [1]): inactive | Activity (Mus musculus [2]): inactive | Activity (Mus musculus [19]): Active

COc1ccc(C2CC(c3ccccc3)=NN2C(=O)c2ccc(-n3c(C)nc4c(Br)cc(Br)cc4c3=O)cc2)cc1 (stereo unspecified)
Activity (Mus musculus [16]): Active | Activity (Mus musculus [12]): Toxic | Activity (Mus musculus [13]): Toxic | Activity (Mus musculus [1]): inactive | Activity (Mus musculus [2]): Active | Activity (Mus musculus [3]): Active

O=C(c1ccc(-n2c(-c3ccccc3)nc3ccccc3c2=O)cc1)N1N=C(c2ccccc2)CC1c1ccc(O)cc1 (stereo unspecified)
Activity (Mus musculus [16]): Active | Activity (Mus musculus [12]): Non-toxic | Activity (Mus musculus [13]): Non-toxic | Activity (Mus musculus [1]): Active | Activity (Mus musculus [2]): inactive | Activity (Mus musculus [3]): inactive

COc1ccc(C2CC(c3ccccc3)=NN2C(=O)c2ccc(-n3c(-c4ccccc4)nc4ccccc4c3=O)cc2)cc1 (stereo unspecified)
Activity (Mus musculus [1]): Active | Activity (Mus musculus [2]): inactive | Activity (Mus musculus [3]): Active | Activity (Mus musculus [4]): inactive

Cc1nc2c(Br)cc(Br)cc2c(=O)n1-c1ccc(C(=O)N2N=C(c3ccccc3)CC2c2cccc([N+](=O)[O-])c2)cc1 (stereo unspecified)
Activity (Mus musculus [1]): Active | Activity (Mus musculus [2]): inactive | Activity (Mus musculus [3]): inactive | Activity (Mus musculus [4]): inactive

Cc1ccc(C2CC(c3ccccc3)=NN2C(=O)c2ccc(-n3c(C)nc4ccccc4c3=O)cc2)cc1 (stereo unspecified)
Activity (Mus musculus [16]): Active | Activity (Rattus norvegicus [6]): 75% | Activity (Rattus norvegicus [7]): Non-toxic | Activity (Rattus norvegicus [8]): 75% | Activity (Rattus norvegicus [9]): 50% | Activity (Rattus norvegicus [10]): 50% | Activity (Rattus norvegicus [11]): 25% | Activity (Mus musculus [12]): Non-toxic | Activity (Mus musculus [13]): Non-toxic | Activity (Mus musculus [1]): Active | Activity (Mus musculus [14]): Active | Activity (Mus musculus [3]): Active
